# Reference: ChEMBL document CHEMBL1926527, “Pharmacophore insights into rpoB gene mutations in Mycobacterium tuberculosis rifampicin resistant isolates” (2012)
# Tests used:
# Format in all cases: functional
# [1] = system: Mycobacterium tuberculosis; experiment: Antimycobacterial activity against Mycobacterium tuberculosis isolate 307 expressing rpoB Ser531Leu mutant gene by resazurin microtiter assay
# [2] = system: Mycobacterium tuberculosis; experiment: Antimycobacterial activity against Mycobacterium tuberculosis isolate 311 expressing rpoB mutant gene by resazurin microtiter assay
# [3] = system: Mycobacterium tuberculosis; experiment: Antimycobacterial activity against Mycobacterium tuberculosis isolate 349 expressing rpoB mutant gene by resazurin microtiter assay
# [4] = system: Mycobacterium tuberculosis; experiment: Antimycobacterial activity against Mycobacterium tuberculosis isolate 308 expressing rpoB His526Asp mutant gene by resazurin microtiter assay
# [5] = system: Mycobacterium tuberculosis; experiment: Antimycobacterial activity against Mycobacterium tuberculosis isolate 309 expressing rpoB His526Arg mutant gene by resazurin microtiter assay
# [6] = system: Mycobacterium tuberculosis; experiment: Antimycobacterial activity against Mycobacterium tuberculosis isolate 344 expressing rpoB Ser522Leu mutant gene by resazurin microtiter assay
# [7] = system: Mycobacterium tuberculosis; experiment: Antimycobacterial activity against Mycobacterium tuberculosis isolate 363 expressing rpoB Asp516Val mutant gene by resazurin microtiter assay
# [8] = system: Mycobacterium tuberculosis; experiment: Antimycobacterial activity against Mycobacterium tuberculosis isolate 352 expressing rpoB Asp516Leu and Phe514Phe double mutant gene by resazurin microtiter assay
# [9] = system: Mycobacterium tuberculosis; experiment: Antimycobacterial activity against Mycobacterium tuberculosis isolate 343 expressing rpoB Asp516Val mutant gene by resazurin microtiter assay
# [10] = system: Mycobacterium tuberculosis; experiment: Antimycobacterial activity against Mycobacterium tuberculosis isolate 364 expressing rpoB Ser522Leu mutant gene by resazurin microtiter assay
# [11] = system: Mycobacterium tuberculosis; experiment: Antimycobacterial activity against Mycobacterium tuberculosis isolate 80,014 expressing rpoB Arg529Lys and Leu530Met mutant gene by resazurin microtiter assay
# [12] = system: Mycobacterium tuberculosis; experiment: Antimycobacterial activity against multidrug-resistant Mycobacterium tuberculosis clinical isolate obtained from tuberculosis patient infected in BALB/c mouse assessed as decrease in bacterial burden in lung at 5 mg/kg, po administered daily for 2 months measured after 1 month relative to untreated control
# [13] = system: Mycobacterium tuberculosis; experiment: Antimycobacterial activity against multidrug-resistant Mycobacterium tuberculosis clinical isolate obtained from tuberculosis patient infected in BALB/c mouse assessed as decrease in bacterial burden in lung at 5 mg/kg, po administered daily for 2 months measured after 2 months; parameters: scale not given: the % may be the effect or the level left
# [14] = system: Mycobacterium tuberculosis; experiment: Antimycobacterial activity against multidrug-resistant Mycobacterium tuberculosis clinical isolate obtained from tuberculosis patient infected in BALB/c mouse assessed as decrease in surface area affected by pneumonia in lung at 5 mg/kg, po administered daily for 2 months measured after 2 months; parameters: scale not given: the % may be the effect or the level left
SMILES,MIC [1] [mg/L],MIC [2] [mg/L],MIC [3] [mg/L],MIC [4] [mg/L],MIC [5] [mg/L],MIC [6] [mg/L],MIC [7] [mg/L],MIC [8] [mg/L],MIC [9] [mg/L],MIC [10] [mg/L],MIC [11] [mg/L],fold change (FC) [12],Activity [13] [%],Activity [14] [%]
CO[C@H]1/C=C/O[C@@]2(C)Oc3c(C)c(O)c4c(c3[C@H]2O)C2=NC3(CCN(CC(C)C)CC3)NC2=C(NC(=O)/C(C)=C\C=C\[C@H](C)[C@H](O)[C@@H](C)[C@@H](O)[C@@H](C)[C@H](O)[C@@H]1C)C4=O,>2,2,>2,>2,2,>2,>2,0.5,>2,>2,2,–,–,–
CCCCCCCCCCCCCCCC(=O)N1C2=C3NC(=O)/C(C)=C\C=C\[C@H](C)[C@H](O)[C@@H](C)[C@@H](O)[C@@H](C)[C@H](OC(C)=O)[C@H](C)[C@@H](OC)/C=C/O[C@@]4(C)Oc5c(C)c(O)c(c(c5C4=O)C2=NC12CCN(CC(C)C)CC2)C3=O,>2,>2,>2,>2,>2,>2,>2,>2,>2,>2,2,–,–,–
CO[C@H]1/C=C/O[C@@]2(C)Oc3c(C)c(O)c4c(O)c(c(/C=N/N5CCN(C)CC5)c(O)c4c3C2=O)NC(=O)/C(C)=C\C=C\[C@H](C)[C@H](O)[C@@H](C)[C@@H](O)[C@@H](C)[C@H](OC(C)=O)[C@@H]1C [RIFAMPIN],>2,>2,>2,>2,0.06,>2,>2,>2,>2,>2,2,–,–,–
CO[C@H]1/C=C/O[C@@]2(C)Oc3c(C)c(O)c4c(c3C2=O)C2=NC3(CCN(CC(C)C)CC3)N(C(C)=O)C2=C(NC(=O)/C(C)=C\C=C\[C@H](C)[C@H](O)[C@@H](C)[C@@H](O)[C@@H](C)[C@H](OC(C)=O)[C@@H]1C)C4=O,2,>2,2,>2,0.25,0.06,0.06,1,>2,0.25,0.25,>3,50,30
CO[C@H]1/C=C/O[C@@]2(C)Oc3c(C)c(O)c4c(c3C2=O)C2=NC3(CCN(CC(C)C)CC3)NC2=C(NC(=O)/C(C)=C\C=C\[C@H](C)[C@H](O)[C@@H](C)[C@@H](O)[C@@H](C)[C@H](OC(C)=O)[C@@H]1C)C4=O [RIFABUTIN],2,2,1,>2,0.12,0.06,0.06,<0.06,1,0.25,0.12,–,–,–
C=CCCCCCCCCC(=O)N1C2=C3NC(=O)/C(C)=C\C=C\[C@H](C)[C@H](O)[C@@H](C)[C@@H](O)[C@@H](C)[C@H](OC(C)=O)[C@H](C)[C@@H](OC)/C=C/O[C@@]4(C)Oc5c(C)c(O)c(c(c5C4=O)C2=NC12CCN(CC(C)C)CC2)C3=O,>2,>2,>2,>2,1,0.5,0.25,0.25,2,2,0.5,>3,50,15
CO[C@H]1/C=C/O[C@@]2(C)Oc3c(C)c(O)c4c(c3[C@H]2O)C2=NC3(CCN(CC(C)C)CC3)N(C(C)=O)C2=C(NC(=O)/C(C)=C\C=C\[C@H](C)[C@H](O)[C@@H](C)[C@@H](O)[C@@H](C)[C@H](OC(C)=O)[C@@H]1C)C4=O,>2,>2,>2,>2,2,0.5,0.5,>2,>2,>2,0.5,–,–,–
CO[C@H]1/C=C/O[C@@]2(C)Oc3c(C)c(O)c4c(c3C2=O)C2=NC3(CCN(CC(C)C)CC3)NC2=C(NC(=O)/C(C)=C\C=C\[C@H](C)[C@H](O)[C@@H](C)[C@@H](O)[C@@H](C)[C@H](O)[C@@H]1C)C4=O,>2,>2,>2,>2,0.25,2,1,0.12,>2,>2,1,–,–,–
